Assay results: patent US8334298B2, “Treatment or prevention of ovarian hyperstimulation syndrome (OHSS) using a dopamine agonist” (Ferring International Center S.A., priority 2005, dated 2012)
Several values for one entry are separate records, joined by “and”; a condition that tells them apart may be missing. Identical values can stand only once.

Experiments:
OHSS rats [1] = assay: Dose response of quinagolide on vascular permeability in OHSS rats, reassessment (Example 5); type: in vivo, Wistar rats; settings: single rat
Protocol: (§1) Inducing OHSS manifestations. A total of 96 female immature Wistar rats (Harlan Iberica, Sant Feliu de Codina, Barcelona, SPAIN), weighing from 42-48 grams at the beginning of these experiments (day 22), were used to carry out the studies disclosed in Examples 4 and 5. They were injected subcutaneously (s.c) with 10 IU of Pregnant Mare's Serum Gonadotropin (PMSG) (Sigma) for 4 consecutive days (days 22-25), followed by administered intraperitoneally (i.p.) with 30 IU of hCG on the fifth day (day 26) in order to induce OHSS clinical manifestations.
(§2) Measuring vascular permeability (VP). VP was used as an index to estimate and compare the degree of development of the illness. VP was measured in all animals 48-56 hours after hCG administration, following methodology previously described (Gomez et al., supra). Briefly, 0.2 ml Evans Blue dye, 0.05 M, was injected through the femoral vein. After 30 minutes, the peritoneal cavity was irrigated with 5 ml saline, pH 6, 22° C., and massaged for 30 seconds to recover extravasated dye. The peritoneal fluid was recovered in 13 ml tubes containing 0.1 ml NaOH. The tubes were centrifuged at 900×g for 12 minutes to avoid protein interference. The supernatant was filtered through 0.22 um filters in order to eliminate ascitic protein/fibrin mucus which could interfere in the posterior measurements. Finally the absorbance of the extravasated dye was measured at 595 nm using a spectrophotometer. Average and average deviations in each group (see below) were calculated. VP was expressed as μg extravasated Evans Blue dye/100 g body weight in each animal.
For Example 5, three quinagolide doses were tested: 5, […] 250 μg/kg/day. The 250 μg/kg/day dose was tested in order to determine if the maximal potential inhibitory effect of quinagolide had been reached in Example 4.
A total of 26 rats were used for this study. All 26 rats were administered PMSG/hCG to induce OHSS symptoms, as described above. Quinagolide was administered to 18 rats, divided into three groups of six rats per group. The 18 rats that received quinagolide were used as a dose response test group. […] A positive control group was not employed for this Example. The specific details of the dosing regimen for each group is as follows:
Vehicle control group (quinagolide 0 μg/kg) (n=8). Eight rats were implanted with prolactin placebo pellets, 5 days release, between 10:00 to 11:00 on day 26, just following hCG injection (see General Procedures, above). Six hours after prolactin placebo pellet implantation, the rats in this group were orally administered vehicle solution (1:6 alcohol:water mixture) (without quinagolide). They received another oral administration of vehicle solution 24 hours later. Experimental groups (quinagolide at 5, 62.5, 250 μg/kg/day to 3 test groups of rats) (n=6 in each test group). These rats were implanted with prolactin pellets, 5 days release, between 10:00 to 11:00 am on day 26, just following hCG injection (see General Procedures, above). […] In this manner, the desired 5, 62.5, and 250 μg/kg doses to be assayed were achieved. Twenty four hours later, the rats in this group were administered with another dose of the same amounts of quinagolide. Reconstitution and dilution process to reach appropriate quinagolide doses for oral administration. A commercial drug, Norprolac®, was used as the source of quinagolide for this Example. Four Norprolac® pills, containing 150 μg quinagolide each (600 μg quinagolide total) were diluted in 6250 μl of distilled water. A volume of 1250 μl of alcohol was added to reach a vehicle solution (1:6 alcohol:water mixture) containing 80 μg quinagolide per ml solution. A 1.5 ml aliquot was serially diluted (1:4, 1:12.5) in the same vehicle solution. A 250 μl oral administration of each quinagolide solution was given to the appropriate rat in each group on the same day hCG was administered (day 26), as described. […]

OHSS rats [2] = assay: Dose response of quinagolide on vascular permeability in OHSS rats (Example 4); type: in vivo, Wistar rats; settings: single rat, 48-56 h after hCG
Protocol: as §1, §2
A total of 70 rats were used for this study. All 70 rats were administered PMSG/hCG to induce OHSS symptoms, as described above. Quinagolide (batch no. 1010003004; supplied by Ferring Labs) was administered to 56 rats. The 56 rats that received quinagolide were used as a dose response test group. […] Cabergoline (Dostinex®) was administered to 6 rats as a positive control. The specific details of the dosing regimen for each group is as follows:
Vehicle control group (quinagolide 0 μg/kg) (n=8). Eight rats were implanted with prolactin placebo pellets, 5 days release, between 10:00 to 11:00 on day 26, just following hCG injection (see General Procedures, above). Six hours after pellet implantation, the rats in this group were orally administered vehicle solution (1:6 alcohol in water mixture) (without quinagolide). They received another oral vehicle administration of vehicle solution 24 hours later. Experimental groups (quinagolide at 0.1, 0.3, 1, 3, 10, 25, 50 μg/kg/day to 7 test groups of rats) (n=8 in each test group). The rats in these groups were implanted with prolactin pellets, 5 days release, between 10:00 to 11:00 on day 26, just following hCG injection (see General Procedures, above). […] In this manner, the desired 0.1, 0.3, 1, 3, 10, 25, 50 μg/kg doses to be assayed were achieved. Twenty four hours later, the rats in this group were administered with another dose of the same amounts of quinagolide. Positive (cabergoline) control group (n=6). These six rats were implanted with prolactin pellets, 5 days release, between 10:00 to 11:00 .m on day 26, just following hCG injection. […] Twenty four hours later, the rats in this group were administered with another dose of the same amount of cabergoline. […] Reconstitution and dilution process to reach appropriate quinagolide doses for oral administration. Appropriate doses were prepared fresh just prior to being administered (on day 26). A single quinagolide vial, containing approximately 2.30-2.30 mg quinagolide, was employed for each single set of animals. For each solution, approximately 2.30-2.30 mg quinagolide was diluted in a vehicle solution (1:6 alcohol:water mixture) to achieve a stock concentration of 100 μg quinagolide per ml solution. […]

[3] = quinagolide 5 μg/kg/day oral (Norprolac pills)
[4] = quinagolide 250 μg/kg/day oral (Norprolac pills)
[5] = quinagolide 62. μg/kg/day oral (Norprolac pills)

With CCCN1CC(NS(=O)(=O)N(CC)CC)CC2Cc3c(O)cccc3CC21 (stereo not drawn) [Quinagolide, quinagolide] the “Absorbance at 595 nm” value (OHSS rats [1]; [3]) was 0.622 and 0.924 and 0.491 and 0.181 and 0.242 and 0.335, the “μg EB per 100 g body weight” value (OHSS rats [1]; [3]) was 38.74 μg EB per 100 g body weight and 55.57 μg EB per 100 g body weight and 28.74 μg EB per 100 g body weight and 10.96 μg EB per 100 g body weight and 14.76 μg EB per 100 g body weight and 22.13 μg EB per 100 g body weight and the “μg Evans Blue (Abs * 4360)” value (OHSS rats [1]; [3]) was 2711.92 µg and 4028.64 µg and 2140.76 µg and 789.16 µg and 1055.12 µg and 1460.6 µg. The “Absorbance at 595 nm” value (OHSS rats [1]; [4]) was 0.03 and 0.036 and 0.1709 and 0.021 and 0.103 and 0.056, the “μg EB per 100 g body weight” value (OHSS rats [1]; [4]) was 1.721 μg EB per 100 g body weight and 2.854 μg EB per 100 g body weight and 10.88 μg EB per 100 g body weight and 1.356 μg EB per 100 g body weight and 6.703 μg EB per 100 g body weight and 3.513 μg EB per 100 g body weight and the “μg Evans Blue (Abs * 4360)” value (OHSS rats [1]; [4]) was 130.8 µg and 156.96 µg and 745.124 µg and 91.56 µg and 449.08 µg and 244.16 µg. For the same molecule, the “Absorbance at 595 nm” value (OHSS rats [1]; [5]) was 0.115 and 0.125 and 0.256 and 0.209 and 0.299 and 0.201, the “μg EB per 100 g body weight” value (OHSS rats [1]; [5]) was 7.214 μg EB per 100 g body weight and 7.517 μg EB per 100 g body weight and 16.06 μg EB per 100 g body weight and 13.3 μg EB per 100 g body weight and 19.03 μg EB per 100 g body weight and 12.26 μg EB per 100 g body weight and the “μg Evans Blue (Abs * 4360)” value (OHSS rats [1]; [5]) was 501.4 µg and 545 µg and 1116.16 µg and 911.24 µg and 1303.64 µg and 876.36 µg. The “Absorbance at 595 nm” value (OHSS rats [2]; quinagolide 0.1 μg/kg/day oral) was 0.081 and 0.646 and 0.338 and 0.35, the “μg EB per 100 g body weight” value (OHSS rats [2]; quinagolide 0.1 μg/kg/day oral) was 4.871 μg EB per 100 g body weight and 37.81 μg EB per 100 g body weight and 21.05 μg EB per 100 g body weight and 21.19 μg EB per 100 g body weight and the “μg Evans Blue (Abs * 4360)” value (OHSS rats [2]; quinagolide 0.1 μg/kg/day oral) was 353.16 µg and 2816.56 µg and 1473.68 µg and 1526 µg. For the same molecule, the “Absorbance at 595 nm” value (OHSS rats [2]; quinagolide 0.3 μg/kg/day oral) was 0.28 and 0.547 and 0.768 and 0.342 and 0.444, the “μg EB per 100 g body weight” value (OHSS rats [2]; quinagolide 0.3 μg/kg/day oral) was 16.96 μg EB per 100 g body weight and 36.69 μg EB per 100 g body weight and 47.84 μg EB per 100 g body weight and 20.57 μg EB per 100 g body weight and 25.8112 μg EB per 100 g body weight and the “μg Evans Blue (Abs * 4360)” value (OHSS rats [2]; quinagolide 0.3 μg/kg/day oral) was 1220.8 µg and 2384.92 µg and 3348.48 µg and 1491.12 µg and 1935.84 µg. For the same molecule, the “Absorbance at 595 nm” value (OHSS rats [2]; quinagolide 1 μg/kg/day oral) was 0.396 and 0.341 and 0.389 and 0.424 and 0.256 and 0.205, the “μg EB per 100 g body weight” value (OHSS rats [2]; quinagolide 1 μg/kg/day oral) was 27.85 μg EB per 100 g body weight and 22.53 μg EB per 100 g body weight and 22.32 μg EB per 100 g body weight and 26.41 μg EB per 100 g body weight and 14.31 μg EB per 100 g body weight and 12.33 μg EB per 100 g body weight and the “μg Evans Blue (Abs * 4360)” value (OHSS rats [2]; quinagolide 1 μg/kg/day oral) was 1726.56 µg and 1486.76 µg and 1696.04 µg and 1848.64 µg and 1116.16 µg and 893.8 µg. The “Absorbance at 595 nm” value (OHSS rats [2]; quinagolide 3 μg/kg/day oral) was 0.09 and 0.394 and 0.181 and 0.584 and 0.369 and 0.581, the “μg EB per 100 g body weight” value (OHSS rats [2]; quinagolide 3 μg/kg/day oral) was 5.945 μg EB per 100 g body weight and 26.84 μg EB per 100 g body weight and 9.927 μg EB per 100 g body weight and 37.17 μg EB per 100 g body weight and 23.32 μg EB per 100 g body weight and 31.08 μg EB per 100 g body weight and the “μg Evans Blue (Abs * 4360)” value (OHSS rats [2]; quinagolide 3 μg/kg/day oral) was 392.4 µg and 1717.84 µg and 789.16 µg and 2546.24 µg and 1608.84 µg and 2533.16 µg. For the same molecule, the “Absorbance at 595 nm” value (OHSS rats [2]; quinagolide 10 μg/kg/day oral) was 0.418 and 0.145 and 0.188 and 0.328 and 0.626, the “μg EB per 100 g body weight” value (OHSS rats [2]; quinagolide 10 μg/kg/day oral) was 24.63 μg EB per 100 g body weight and 8.543 μg EB per 100 g body weight and 12.42 μg EB per 100 g body weight and 19.73 μg EB per 100 g body weight and 37.39 μg EB per 100 g body weight and the “μg Evans Blue (Abs * 4360)” value (OHSS rats [2]; quinagolide 10 μg/kg/day oral) was 1822.48 µg and 632.2 µg and 819.68 µg and 1430.08 µg and 2729.36 µg. For the same molecule, the “Absorbance at 595 nm” value (OHSS rats [2]; quinagolide 25 μg/kg/day oral) was 0.299 and 0.311 and 0.042 and 0.669 and 0.08, the “μg EB per 100 g body weight” value (OHSS rats [2]; quinagolide 25 μg/kg/day oral) was 19.17 μg EB per 100 g body weight and 19.23 μg EB per 100 g body weight and 2.654 μg EB per 100 g body weight and 40.51 μg EB per 100 g body weight and 4.501 μg EB per 100 g body weight and the “μg Evans Blue (Abs * 4360)” value (OHSS rats [2]; quinagolide 25 μg/kg/day oral) was 1303.64 µg and 1355.96 µg and 183.12 µg and 2916.84 µg and 348.8 µg. For the same molecule, the “Absorbance at 595 nm” value (OHSS rats [2]; quinagolide 50 μg/kg/day oral) was 0.179 and 0.048 and 0.151 and 0.358 and 0.09 and 0.215, the “μg EB per 100 g body weight” value (OHSS rats [2]; quinagolide 50 μg/kg/day oral) was 10.84 μg EB per 100 g body weight and 2.847 μg EB per 100 g body weight and 9.144 μg EB per 100 g body weight and 22.95 μg EB per 100 g body weight and 5.267 μg EB per 100 g body weight and 12.5 μg EB per 100 g body weight and the “μg Evans Blue (Abs * 4360)” value (OHSS rats [2]; quinagolide 50 μg/kg/day oral) was 780.44 µg and 209.28 µg and 658.36 µg and 1560.88 µg and 392.4 µg and 937.4 µg.
